Laboratory results taken from publication PMC6318026 (Molecular cancer therapeutics, 2018).

Target: dihydroorotate dehydrogenase (DHODH) (Homo sapiens, UniProt Q02127)
Test: recombinant DHODH enzyme assay
Type: biochemical

dihydroorotate dehydrogenase (DHODH), sequence (Q02127 whole entry): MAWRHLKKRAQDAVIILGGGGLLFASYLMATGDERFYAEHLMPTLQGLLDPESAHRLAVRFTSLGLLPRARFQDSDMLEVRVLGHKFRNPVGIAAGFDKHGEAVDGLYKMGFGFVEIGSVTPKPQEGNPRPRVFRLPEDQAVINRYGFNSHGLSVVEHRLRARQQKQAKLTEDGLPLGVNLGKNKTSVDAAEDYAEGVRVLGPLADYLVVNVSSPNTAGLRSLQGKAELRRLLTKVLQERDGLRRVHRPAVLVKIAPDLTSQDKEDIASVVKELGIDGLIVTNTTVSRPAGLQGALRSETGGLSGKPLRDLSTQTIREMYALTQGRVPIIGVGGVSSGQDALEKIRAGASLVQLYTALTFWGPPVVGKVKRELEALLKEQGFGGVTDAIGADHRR

Question: Which “recombinant DHODH enzyme assay; isolated mitochondria assay” value does the source give for C/C(O)=C(\C#N)C(=O)Nc1ccc(C(F)(F)F)cc1 [teriflunomide] here?
Answer: inhibited the activity of recombinant DHODH using in vitro enzyme assays, though not as potently as do brequinar or teriflunomide
